Data set [1] deals with T1, AKR1D1 (Homo sapiens, UniProt P51857).
T1 sequence (P51857 1-326): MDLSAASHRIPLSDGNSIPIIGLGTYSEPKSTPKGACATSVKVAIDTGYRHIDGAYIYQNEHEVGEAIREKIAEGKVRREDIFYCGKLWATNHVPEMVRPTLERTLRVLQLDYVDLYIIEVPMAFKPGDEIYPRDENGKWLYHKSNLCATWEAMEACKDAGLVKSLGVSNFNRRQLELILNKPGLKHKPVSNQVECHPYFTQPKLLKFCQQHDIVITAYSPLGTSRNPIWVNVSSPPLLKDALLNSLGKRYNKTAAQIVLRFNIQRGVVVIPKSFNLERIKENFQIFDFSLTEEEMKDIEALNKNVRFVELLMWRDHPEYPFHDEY
The note with it: cited from earlier work.

Data set [2] has as its target AKR1C1. Particulars: read-out: Ki AKR1C1; competitive (C); ref Bauman et al., 2005 [28]; cited from earlier work.
For data set [3], the target named is T1, AKR1D1. In words: Inhibition of [4-14C]-testosterone reduction, radiometric assay. Particulars: for ability to inhibit the AKR1D1 dependent reduction of testosterone: result in words; for mode of inhibition of AKR1D1: C, competitive inhibition, NC, non-competitive inhibition. It counts as biochemical.
For data set [4], the target named is AKR1C3. Particulars: read-out: Ki AKR1C3; competitive (C); ref Bauman et al., 2005 [28]; cited from earlier work.
Data set [5] has as its target AKR1C2. The note with it: read-out: Ki AKR1C2; competitive (C); ref Bauman et al., 2005 [28]; cited from earlier work.
For data set [6], the target named is T1, AKR1D1. In kind it is biochemical. The note with it: for Km / kcat: fluorimetric, pH 6.0, 15 μM NADPH, 37 °C.
Data set [7] concerns the target T1, AKR1D1. In words: Dissociation constant of AKR1D1-NADPH binary complex by fluorescence titration. It counts as binding.
The target of data set [8] is aldose reductase AKR1B1. The note with it: read-out: Kd of NADPH for aldose reductase AKR1B1; cited from earlier work.
Substrate in data set [9]: C[C@]12CCC(=O)C=C1CC[C@@H]1[C@@H]2[C@@H](O)C[C@]2(C=O)[C@@H](C(=O)CO)CC[C@@H]12
It counts as biochemical, human. Particulars: other: fluorimetric, pH 6.0, 15 μM NADPH, 37 °C.

Substrate in data set [10]: C[C@]12CC[C@H]3[C@@H](CCC4=CC(=O)CC[C@@]43C)[C@@H]1CC[C@H]2O
It counts as biochemical, human. Particulars: other: fluorimetric, pH 6.0, 15 μM NADPH, 37 °C.

Substrate in data set [11]: C[C@]12CCC(=O)C=C1CC[C@@H]1[C@@H]2[C@@H](O)C[C@@]2(C)[C@H]1CC[C@]2(O)C(=O)CO
It counts as biochemical, human. Particulars: other: fluorimetric, pH 6.0, 15 μM NADPH, 37 °C.

The mark [12] stands for this setting: read-out: Ki (substrate inhibition), dissociation constant for substrate from the E-NADP(H) complex, N.D. = not detected.
The mark [13] stands for this setting: dissociation constant for substrate from the E-NADP(H) complex, N.D. = not detected.
Setting [14] is: ref Di Costanzo et al., 2008 [13].

Like-named read-outs stand apart in the source and are kept apart here. Where only a bound is given, the exact number is not on record here.

By Km is commonly meant the concentration of substrate that gives half-maximal velocity. By kcat is commonly meant the maximal rate divided by the concentration of active sites. By Kd is commonly meant a measure of binding affinity in units of concentration. For orientation: kcat/Km means the second-order rate constant that governs catalysis at low substrate concentration.

As to `C[C@]12CC[C@H]3[C@@H](CCC4=CC(=O)C=C[C@@]43C)[C@@H]1CC[C@@H]2O` [1,4-Androstadien-17β-ol-3-one], in data set [1] (ref Drury et al., 2009 [14]), the Michaelis-Menten constant (Km) is 3.2 ± 0.2 µM and the catalytic constant (kcat) is 0.035 ± 0.0017 s⁻¹.
Turning to `O=C(O)c1ccc(C(=O)c2ccccc2)cc1` [4-Benzoylbenzoic acid], the Ki is 12.5 µM in [2], above 100 µM in data set [3], 1.9 µM in data set [4] and 13.3 µM in data set [5]. Further, the “ability to inhibit the AKR1D1 dependent reduction of testosterone” value in [3] is given as “ineffective”.
In the case of `CC(C)CCC[C@@H](C)[C@H]1CC[C@H]2[C@@H]3[C@H](O)CC4=CC(=O)CC[C@]4(C)[C@H]3CC[C@]12C` [4-Cholesten-7α-ol-3-one], in data set [6], the Michaelis constant (Km) was determined as 0.8 ± 0.2 µM and the catalytic constant (kcat) was 0.0333 ± 0.0017 s⁻¹.
With `C[C@]12CC[C@H]3[C@@H](CCC4=CC(=O)CC[C@@H]43)[C@@H]1CC[C@@H]2O` [4-Estren-17β-ol-3-one], in [6], the Km came to 3 ± 0.5 µM and the kcat turned out to be 0.045 ± 0.0033 s⁻¹. The Ki in data set [6] (setting [12]) was determined as 18.6 ± 3.4 µM.
Turning to `C[C@]12CC[C@H]3[C@@H](CCC4=CC(=O)CC[C@@]43C)[C@@H]1CC[C@@H]2C(=O)CO` [11-deoxycorticosterone], in data set [6], the Ki was below 2 µM, the Km was below 0.2 µM and the kcat is above 0.067 s⁻¹.
Molecule `C[C@]12CCC(=O)C=C1CC[C@@H]1[C@@H]2[C@@H](O)C[C@]2(C=O)[C@@H](C(=O)CO)CC[C@@H]12` [Aldosterone] had a Ki in [6] of 66.5 ± 15.7 µM.
On to `C[C@H](CCC(=O)O)[C@H]1CC[C@H]2[C@@H]3[C@H](O)C[C@@H]4C[C@H](O)CC[C@]4(C)[C@H]3CC[C@]12C` [Chenodeoxycholic acid], for which the Ki in [2] was 8.3 µM; in data set [3], 3.2 µM; in [4], 10 µM; in data set [5], 0.017 µM. In data set [3], the “mode of inhibition of AKR1D1” value was “non-competitive”.
Turning to `CC(C)CCC[C@@H](C)[C@H]1CC[C@H]2[C@@H]3CCC4=CC(=O)CC[C@]4(C)[C@H]3CC[C@]12C` [Cholestenone], in [6], the Km stood at 0.3 ± 0.1 µM and the catalytic constant (kcat) was determined as 0.01 ± 0.00067 s⁻¹.
On to `C[C@]12C[C@H](O)[C@H]3[C@@H](CCC4=CC(=O)CC[C@@]43C)[C@@H]1CC[C@@H]2C(=O)CO` [Corticosterone], for which the “Ki (substrate inhibition)” value in [6] (setting [13]) is recorded as “do not exhibit substrate inhibition”. Further, in data set [6], the Michaelis-Menten constant (Km) came out at 2.2 ± 0.5 µM and the kcat worked out at 0.0317 ± 0.0017 s⁻¹.
`C[C@]12CCC(=O)C=C1CC[C@@H]1[C@@H]2[C@@H](O)C[C@@]2(C)[C@H]1CC[C@]2(O)C(=O)CO` [Cortisol]: the “Ki (substrate inhibition)” value in data set [6] (setting [13]) is “do not exhibit substrate inhibition”.
In the case of `C[C@]12CCC(=O)C=C1CC[C@@H]1[C@@H]2C(=O)C[C@@]2(C)[C@H]1CC[C@]2(O)C(=O)CO` [Cortisone], in [6], the Michaelis-Menten constant (Km) was determined as 15.1 ± 0.3 µM and the turnover number (kcat) came to 0.195 ± 0.0017 s⁻¹.
For the molecule `C[C@]12CC[C@H]3[C@@H](CCC4=CC(=O)CC[C@@]43C)[C@@H]1CC[C@H]2O` [Epitestosterone], in data set [6], the Ki was found to be 10 ± 2.2 µM.
Regarding `COc1ccc2c(c1)c(CC(=O)O)c(C)n2C(=O)c1ccc(Cl)cc1` [Indomethacin], in data set [3], the Ki is above 100 µM and the “ability to inhibit the AKR1D1 dependent reduction of testosterone” value is “ineffective”.
Regarding `Cc1cccc(Nc2ccccc2C(=O)O)c1C` [Mefenamic acid], the Ki in data set [2] is 0.8 µM; in [3], above 100 µM. Besides, the “ability to inhibit the AKR1D1 dependent reduction of testosterone” value in data set [3] is recorded as “ineffective”.
On to `C[C@]12CC[C@H]3[C@@H](CCC4=CC(=O)CC[C@@]43C)[C@@H]1CC[C@@H]2O` [Testosterone], for which the Ki in data set [1] (read-out: Ki (substrate inhibition), ref Di Costanzo et al., 2008 [13]) was 14.5 ± 5.8 µM. For the same molecule, in [1] (setting [14]), the Michaelis constant (Km) was 2.7 ± 1.2 µM and the kcat is 0.14 ± 0.0333 s⁻¹.
In the case of `C[C@H](CCC(=O)O)[C@H]1CC[C@H]2[C@@H]3[C@@H](O)C[C@@H]4C[C@H](O)CC[C@]4(C)[C@H]3CC[C@]12C` [Ursodeoxycholic acid], the Ki in data set [2] was 4.9 µM; in data set [3], 9.8 µM; in [4] it was 1.3 µM; in [5], 0.011 µM. For the same molecule, the “mode of inhibition of AKR1D1” value in data set [3] was “non-competitive”.
For `CC(=O)[C@H]1CC[C@H]2[C@@H]3CCC4=CC(=O)CC[C@]4(C)[C@H]3CC[C@]12C` [progesterone], in data set [6], the Ki is below 2 µM, the Km was below 0.2 µM and the catalytic constant (kcat) is above 0.067 s⁻¹.
Consider `C[C@]12CCC(=O)C=C1CC[C@@H]1[C@@H]2CC[C@]2(C)C(=O)CC[C@@H]12` [Δ^4-Androstene-3,17-dione], for which, in [6], the Km was 0.9 ± 0.2 µM and the kcat turned out to be 0.1 ± 0.013 s⁻¹. The Ki in data set [6] (setting [12]) turned out to be 4.3 ± 1.3 µM.
NADPH: in data set [7] (AKR1D1 vs AKR1B1 (human aldose reductase)), the “Kd fold higher than AKR1B1” value came to 5 fold. For the same molecule, the dissociation constant (Kd) is 0.043 ± 0.016 µM in data set [7] (read-out: dissociation constant (Kd) of NADPH for wild-type AKR1D1, fluorescence titration, 10 mM potassium phosphate pH 6.0, 37 °C) and 0.009 µM in data set [8].

B1: AKR1D1 (Homo sapiens) (protein)
chain: T1 sequence (P51857 1-326)
For B1, in [9], the Michaelis constant (Km) was 2.5 ± 0.4 µM, the kcat came to 0.15 ± 0.01 s⁻¹ and the specificity constant (kcat/Km) worked out at 61300 M⁻¹ s⁻¹. Besides, in [10], the Km turned out to be 2.9 ± 0.6 µM, the turnover number (kcat) came to 0.1 ± 0.0117 s⁻¹ and the kcat/Km is 34800 M⁻¹ s⁻¹. In data set [11], the Km was found to be 13.1 ± 1.8 µM, the catalytic constant (kcat) was 0.045 ± 0.00167 s⁻¹ and the catalytic efficiency (kcat/Km) amounted to 3500 M⁻¹ s⁻¹.

The values above are taken from publication PMC3056882 (Steroids, 2011).
